Assay results: US9732075B2, “Benzimidazole-proline derivatives” (IDORSIA PHARMACEUTICALS LTD, priority 2012, dated 2017)

Columns and labels:
[1] = Measurement of brain and systemic concentration after oral administration; format: in vivo; settings: 3 h after oral administration (100 mg/kg), male wistar rats, n=3
Experimental: Measurement of Brain and Systemic Concentration after Oral Administration:
In order to assess brain penetration, the concentration of the compound is measured in plasma ([P]), and brain ([B]), sampled 3 h (or at different time points) following oral administration (e.g. 100 mg/kg) to male wistar rats. The compounds are formulated e.g. in 100% PEG 400. Samples are collected in the same animal at the same time point (+/−5 min).
Blood is sampled from the vena cava caudalis into containers with EDTA as anticoagulant and centrifuged to yield plasma. Brain is sampled after cardiac perfusion of 10 mL NaCl 0.9% and homogenized into one volume of cold phosphate buffer (pH 7.4). All samples are extracted with MeOH and analyzed by LC-MS/MS. Concentrations are determined with the help of calibration curves.

Wistar rats = test: Sedative effects: EEG, EMG and behavioural indices of alertness recorded by radiotelemetry in vivo; settings: 30 mg/kg po; effects analyzed over 6 hours; compared to vehicle controls
Experimental: Sedative Effects: EEG, EMG and Behavioural Indices of Alertness Recorded by Radiotelemetry In Vivo in Wistar Rats.
Electroencephalography (EEG) and Electromyography (EMG) signals were measured by telemetry using TL11M2-F20-EET miniature radiotelemetric implants (Data Science Int.) with two pairs of differential leads.
Surgical implantation was performed under general anesthesia with Ketamin/Xylazin, for cranial placement of one differential pair of EEG electrodes and one pair of EMG leads inserted in either side of the muscles of the neck. After surgery, rats recovered in a thermoregulated chamber and received analgesic treatment with subcutaneous buprenorphine twice a day for 2 d. They were then housed individually and allowed to recover for a minimum of 2 weeks. Thereafter, rats—in their home cage—were placed in a ventilated sound-attenuating box, on a 12-h light/12-h dark cycle, for acclimatization before continuous EEG/EMG recordings started. The telemetric technology that we used in this study allows accurate and stress-free acquisition of biosignals in rats placed in their familiar home cage environment, with no recording leads restricting their movements. Variables analyzed included four different stages of vigilance and sleep, spontaneous activity in the home cage and body temperature. Sleep and wake stages were evaluated using a rodent scoring software (Somnologica Science) directly processing electrical biosignals on 10 s contiguous epochs. The scoring is based on frequency estimation for EEG and amplitude discrimination for EMG and locomotor activity. Using these measurements, the software determines the probability that all components within each epoch best represent active waking (AW), quiet waking (QW), non-REM-sleep (NREM) or REM-sleep (REM). The percentage of total time spent in AW, QW, NREM- and REM-sleep was calculated per 12 h light or dark period. The latency to the onset of the first significant NREM- and REM-sleep episodes and the frequency and duration of those episodes were also calculated. AW, QW, NREM- and REM-sleep, home cage activity and body temperature were measured at baseline for at least one total circadian cycle (12 h-night, 12 h-day) before a test compound was administered. […] All variables were subsequently recorded for 12 h following administration of the orexin receptor antagonist.

human orexin-2 receptor = human orexin-2 receptor (Homo sapiens (Human), UniProt O43614); test: In vitro assay: intracellular calcium measurements (FLIPR), antagonistic activity; format: cell-based; settings: CHO cells expressing human orexin-2 receptor, orexin-A agonist, geometric mean, read-out: IC50 Ox2
Chain of human orexin-2 receptor (O43614 whole entry): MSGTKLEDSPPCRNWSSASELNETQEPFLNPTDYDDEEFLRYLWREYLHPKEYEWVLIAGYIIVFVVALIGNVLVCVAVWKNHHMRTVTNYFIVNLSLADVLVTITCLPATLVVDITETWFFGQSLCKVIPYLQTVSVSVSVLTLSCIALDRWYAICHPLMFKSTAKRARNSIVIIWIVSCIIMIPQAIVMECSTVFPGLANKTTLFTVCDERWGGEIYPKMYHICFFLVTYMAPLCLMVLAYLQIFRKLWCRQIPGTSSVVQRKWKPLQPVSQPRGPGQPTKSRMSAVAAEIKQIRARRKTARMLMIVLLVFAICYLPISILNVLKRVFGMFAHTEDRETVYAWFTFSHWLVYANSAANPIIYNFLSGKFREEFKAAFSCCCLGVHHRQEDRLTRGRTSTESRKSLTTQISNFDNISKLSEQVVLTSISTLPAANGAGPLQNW
In short: (§1)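 IC50s are geometric means, possibly reference-normalized, from FLIPR calcium peaks in CHO cells bearing human orexin-1 or orexin-2 receptor. Fluo-4 AM/probenecid-loaded cells received antagonist for 120 min before challenge with orexin-A (final 3 nM, ~EC70), with responses compared against vehicle controls.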

human orexin-1 receptor = human orexin-1 receptor (Homo sapiens (Human), UniProt O43613); test: as above; format: cell-based; settings: CHO cells expressing human orexin-1 receptor, orexin-A agonist, geometric mean, read-out: IC50 Ox1
Chain of human orexin-1 receptor (O43613 whole entry): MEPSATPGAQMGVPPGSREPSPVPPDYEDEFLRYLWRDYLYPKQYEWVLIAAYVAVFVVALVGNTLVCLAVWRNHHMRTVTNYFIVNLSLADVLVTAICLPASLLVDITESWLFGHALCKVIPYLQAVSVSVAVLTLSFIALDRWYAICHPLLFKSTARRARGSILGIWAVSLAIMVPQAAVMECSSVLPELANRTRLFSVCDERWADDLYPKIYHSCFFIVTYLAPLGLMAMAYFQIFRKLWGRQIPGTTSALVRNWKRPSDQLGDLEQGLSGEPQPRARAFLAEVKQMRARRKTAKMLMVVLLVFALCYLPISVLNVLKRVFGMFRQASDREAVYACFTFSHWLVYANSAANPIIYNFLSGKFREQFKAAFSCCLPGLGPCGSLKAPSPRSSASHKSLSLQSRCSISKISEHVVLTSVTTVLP
In short: as §1

rat [2] = settings: cited from earlier work
rats [3] = settings: cited from earlier work
mouse = settings: administered chronically; cited from earlier work
[4] = system: amyloid precursor protein transgenic mice; settings: after acute sleep restriction; cited from earlier work
rat [5] = settings: cited from earlier work; remark: listed apart in the source
rat [6] = settings: cited from earlier work; remark: listed apart in the source
rats [7] = settings: rats treated with the compound; cited from earlier work
humans = settings: cited from earlier work
rats [8] = settings: fasted hungry rats exposed to food odors; cited from earlier work
rodents [9] = settings: repeated amphetamine administration; cited from earlier work
rodents [10] = settings: cited from earlier work

SMILES	concentration of the compound in brain [B] [1] [ng/g]	concentration of the compound in plasma [P] [1] [ng/mL]	effect on NREM sleep (Wistar rats)	effect on REM sleep (Wistar rats)	effect on active wake (Wistar rats) [%]	effect on home cage activity (Wistar rats) [%]	IC50 (human orexin-2 receptor) [nM]	IC50 (human orexin-1 receptor) [nM]	other results
Cc1ccc(-c2ncccn2)c(C(=O)N2CCC[C@@]2(C)c2nc3cc(Br)cc(C)c3[nH]2)c1 [Example 5.277]	5880	3560	+21%	+52%	−22	−42	21	6	–
CNC(=O)[C@@H](c1ccccc1)N1CCc2cc(OC)c(OC)cc2[C@@H]1CCc1ccc(C(F)(F)F)cc1 [(2R)-2-{(1S)-6,7-dimethoxy-1-[2-(4-trifluoromethyl-phenyl)-ethyl]-3,4-dihydro-1H-isoquinolin-2-yl}-N-methyl-2-phenyl-acetamide]	–	–	–	–	–	–	–	–	pharmacological activity in nicotine self-administration (rat [2]): displayed pharmacological activity; cardiovascular responses to conditioned fear and novelty exposure (rats [3]): attenuated; antidepressant-like activity (mouse): induce antidepressant-like activity; brain levels of amyloid-beta and Aβ plaque deposition [4]: decreased; alertness (active wake and locomotion) (rat [5]): decrease alertness; time spent in both REM and NREM sleep (rat [5]): dose-dependently increase; activity in fear-potentiated startle paradigm (rat [6]): active; learning and memory (rats [7]): intact declarative and non-declarative learning and memory; clinical efficacy in primary insomnia (humans): showed clinical efficacy; natural activation induced by orexin A (rats [8]): attenuate
COc1ccc(-n2nccn2)c(C(=O)N2CCC[C@@]2(C)c2nc3c(C)c(Cl)ccc3[nH]2)c1 [Example 5.36]	1808	1280	+27%	+53%	−24	−31	–	–	–
Cn1c(SCC(=O)N2CCC[C@H]2C(=O)Nc2ccccc2-c2ccccc2)nc2ccccc21 [N-biphenyl-2-yl-1-{[(1-methyl-1H-benzimidazol-2-yl)sulfanyl]acetyl}-L-prolinamide]	–	–	–	–	–	–	–	–	behavioral (locomotor sensitization) and molecular (transcriptional responses) changes (rodents [9]): reduced; nicotine-reinstatement for a conditioned reinforcer (rodents [10]): inhibited
Cc1ccc(-n2nccn2)c(C(=O)N2CCC[C@@]2(C)c2nc3cc(Br)cc(C)c3[nH]2)c1 [Example 5.19]	3880	2095	+31%	+69%	−28	−46	20	9	–
